One test has as its system Staphylococcus aureus. In kind it is cell-based.
In a further test the test system is SARS-CoV-2. Also noted: species or system Balb/c mice. The following applies: mouse, in vivo.
The next test concerns Pseudomonas aeruginosa. The class given is cell-based.

Regarding `OCCOc1ccccc1` [Formulation 2-PE, 2-Phenoxyethanol], the antimicrobiotic activity result in the test on Staphylococcus aureus and in the test with Pseudomonas aeruginosa was “has antimicrobiotic activity” in each case. Besides, the “VNTs after 48 h storage with preservative” value in the test with SARS-CoV-2 is recorded as “more advantageous results”.
Turning to `C[CH2][Hg][S]c1ccccc1C(=O)[O-].[Na+]` [Thiomersal, Natrium-2-(ethylmercurithio)benzoat], in the test on SARS-CoV-2, the “VNTs after 48 h storage with preservative” value was “slight decrease”.

The values above are taken from patent publication US20240299309A1 (priority 2020, published 2024).
